Results reported in patent publication US20200399390A1, “METHODS FOR PRODUCING LYMPHOCYTE PROGENITORS” (MURDOCH CHILDRENS RESEARCH INSTITUTE, priority 2017, published 2020).

Test system: B-lymphocytes
Assay: B-cell progenitor production by co-culture on OP9 stromal cells
Type: cell-based, human
Protocol: Co-Culture Systems Involving DLL4 Stromal or OP9 Stromal Cells for Production of B-Cell Progenitors
Co-culture systems generally used alpha-MEM medium supplemented with 10˜20% fetal calf serum (FCS), Penicillin Streptomycin, L-glutamine and 2-Mercaptoethanol (0.1 mM).
Stromal cells were seeded into an appropriate number of wells of a multi-well plate and allowed to grow until they reached confluency.
At around day 15, cells were transferred onto confluent layers of OP9 or OP9-DLL4 stromal cells and cultured in the following conditions:
Medium: alpha-MEM medium supplemented with 5˜10% FCS, penicillin streptomycin, L-glutamine and 2-mercaptoethanol (0.1 mM)
Cytokines: SCF (50 ng/mL) and DAPT (10 uM).
Media was changed every 4˜5 days.
Every 7˜10 days, the culture was passaged onto new wells coated with fresh layers of stromal cells.
As an alternative to using OP9 stromal cells expressing DLL4 (DLL4-0P9) for B-cell progenitor production according to Example 1, which requires addition of a NOTCH1 inhibitor such as DAPT to the culture medium to permit B-cell development, OP9 stromal cells (without DLL4) can also be used (FIG. 20). This system generates a larger number of B-cell progenitors (FIG. 20B), a small fraction of which (˜1%) are IgM^+ (FIG. 20B). This frequency of IgM^+ cells is similar to that seen with cord blood CD34^+ cells cultured in similar systems.

## C[C@H](NC(=O)Cc1cc(F)cc(F)c1)C(=O)N[C@H](C(=O)OC(C)(C)C)c1ccccc1 [DAPT, N—[N-(3,5-difluorophenacetyl)-L-alanyl]-S-phenylglycine t-butyl ester]
OP9 stromal cell co-culture, SCF (50 ng/mL) and DAPT (10 uM), from around day 15
  effect of presence of DAPT on development of B-lymphocytes: enhances the development of B-lymphocytes
OP9 stromal cells (without DLL4), FIG. 20
  effect of addition of DAPT on B-cell progenitor generation: further enhanced
